Source: patent US8426386B2, “NK1 receptor antagonist composition” (Lion Corporation, priority 2006, dated 2013)

Tested on: NK1 receptor
Assay: NK1 Receptor Antagonism Assay (calcium imaging, substance P stimulation)
Format: cell-based, human
Details: for effect as the NK1 receptor antagonist (in words): summary of Table 1
Excerpt: [Performance Evaluation Test] NK1 Receptor Antagonism Assay
In this test, maltose, maltotriose, maltotetraose, maltopentaose, maltohexaose and maltoheptaose were purchased from SIGMA, isomaltose, isomaltotriose, isomaltotetraose, isomaltopentaose, isomaltohexaose and isomaltoheptaose were purchased from Seikagaku Corporation, and four types of oligosaccharides-1-kestose, fructofranosylnystose, nystose and galactotetraose—were purchased from Wako Pure Chemicals Industries Ltd. Each oligosaccharide was diluted with saline, and used.
In order to transiently express a cloned human NK1 receptor in HEK293, cDNA of the human NK1 receptor was cut out from pCDM8 (Invitrogen), and cloned in an expression vector pCDM9 derived by inserting an ampicillin resistant gene (BLUESCRIPT, nucleotides 1973 to 2964 from SK+) at a SacII site.
HEK293 cells were seeded at 1×10^5 cells in a Falcon dish (diameter: 3.5 cm) using α-MEM medium (Gibco) containing 10% bovine fetal serum, and cultured in a 5% CO2 incubator at 37° C. overnight. Then, 20 μg of the expression vector was transfected using Transfection Reagent FuGENE6 (Roche) according to attached instructions, and the transfectants were incubated at 37° C. for 3 days and assayed by a calcium imaging method.
According to Renganathan et al's method (Renganathan M et al., J. Neurophysiol., 84(2), […] (2000)), nerve cells were dispersed and isolated from spinal dorsal root ganglion in a wild type mouse, and 1×10^5 thereof were seeded in a 24-well plate coated with poly-L-lysine. The cells were cultured in 90% DMEM medium (GIBCO) supplemented with 10% bovine fetal serum, 2 mM glutamine, 100 U/mL of penicillin/streptomycin, 100 ng/mL of NGF (SIGMA) and 5 μM cytosine arabinoside (SIGMA) under 5% CO2 at 37° C. The cells were cultured for 1 to 3 weeks, and subsequently subjected to a calcium imaging analysis. A half of the nerve cells was identified to be positive for the NK1 receptor by staining the nerve cells derived from spinal dorsal root ganglion in the wild type mouse with an anti-NK1 receptor antibody (supplied from CHEMICON International).
The cells which express the NK1 receptor transiently or constitutively were subjected to measurement using a high resolution digital B/W cooling CCD camera (ORCA supplied from Hamamatsu Photonics K.K.), and their images were analyzed using an analysis software (AQUA COSMOS supplied from Hamamatsu Photonics K.K.). When the cells were labeled for calcium, Fluo4-AM (supplied from Molecular Probe) was used as a calcium sensitive dye. Fifty μg of Fluo4-AM was dissolved in 400 μL of DMSO in a vial, 4 μL of Pluronic F-127 (Molecular Probe) was added and mixed, and then 4 mL of OPTI-MEM (GIBCO) was added thereto. The calcium sensitive dye solution thus prepared was added to the cells, which were then incubated at 37° C. for 60 minutes. An agonist, an antagonist and samples to be evaluated were prepared at concentrations which were 10 times higher than assay concentrations, and analyzed by adding a one tenth volume of the cell suspension upon analysis. All reagents and an assay temperature were kept at 37° C. For the cells transfected transiently, YFP reporter DNA fluorescence (excitation: 490 nm) was used for identifying the transfected cells. Upon measurement, a fluorescence intensity obtained by initially imaging the untreated cells was made an initial value. After passing one minute, a change of calcium/fluorescence intensity in the sample to be evaluated at the desired concentration was monitored with an interval of one second before and after the addition (2 to 5 minutes). Subsequently, substance P was added, and immediately after (2 to 5 minutes), an antagonistic activity of the sample to be evaluated was determined by monitoring the change of intracellular calcium concentrations as the change of the fluorescence intensities with the interval of one second. […]

[1] = evaluated concentration 1000 ppm, substance P 100 μM
[2] = evaluated concentration 0.1 ppm, substance P 100 μM
[3] = evaluated concentration 1 ppm, substance P 100 μM
[4] = evaluated concentration 10 ppm, substance P 100 μM
[5] = evaluated concentration 100 ppm, substance P 100 μM

Compound	Efficacy (NK1 receptor antagonistic activity grade) [1]	effect as the NK1 receptor antagonist (in words)	efficacy at a low concentration (in words) (0.1 ppm)	Efficacy (NK1 receptor antagonistic activity grade) [2]	Efficacy (NK1 receptor antagonistic activity grade) [3]	Efficacy (NK1 receptor antagonistic activity grade) [4]	Efficacy (NK1 receptor antagonistic activity grade) [5]	NK1 receptor antagonistic activity (positive control, 100 ppm (Table 1), substance P 100 μM)
OC[C@H]1O[C@H](OC[C@H]2O[C@H](OC[C@H]3OC(O)[C@H](O)[C@@H](O)[C@@H]3O)[C@H](O)[C@@H](O)[C@@H]2O)[C@H](O)[C@@H](O)[C@@H]1O (stereo partly shown) [Isomaltotriose, isomaltotriose, reference compound]	D (Ineffective: the antagonistic activity was less than 65%, or the stimulating or agonistic activity of the sample was strong.)	no NK1 receptor antagonistic activity was observed at all						
OC[C@H]1O[C@H](OC[C@H]2OC(O)[C@H](O)[C@@H](O)[C@@H]2O)[C@H](O)[C@@H](O)[C@@H]1O (stereo partly shown) [Isomaltose, isomaltose, reference compound]	D (Ineffective: the antagonistic activity was less than 65%, or the stimulating or agonistic activity of the sample was strong.)	no NK1 receptor antagonistic activity was observed at all						
OC[C@H]1O[C@@](CO)(OC[C@@]2(O[C@H]3O[C@H](CO)[C@@H](O)[C@H](O)[C@H]3O)O[C@H](CO)[C@@H](O)[C@@H]2O)[C@@H](O)[C@@H]1O [Example 1-Kestose, 1-kestose, reference compound]	D (Ineffective: the antagonistic activity was less than 65%, or the stimulating or agonistic activity of the sample was strong.)	no NK1 receptor antagonistic activity was observed at all						
OC[C@H]1O[C@H](OC[C@H]2O[C@H](OC[C@H]3O[C@H](OC[C@H]4O[C@H](OC[C@H]5O[C@H](OC[C@H]6OC(O)[C@H](O)[C@@H](O)[C@@H]6O)[C@H](O)[C@@H](O)[C@@H]5O)[C@H](O)[C@@H](O)[C@@H]4O)[C@H](O)[C@@H](O)[C@@H]3O)[C@H](O)[C@@H](O)[C@@H]2O)[C@H](O)[C@@H](O)[C@@H]1O (stereo partly shown) [Isomaltohexaose, isomaltohexaose, reference compound]	D (Ineffective: the antagonistic activity was less than 65%, or the stimulating or agonistic activity of the sample was strong.)	no NK1 receptor antagonistic activity was observed at all						
maltopentaose	A (Complete response: the antagonistic activity was 75% or more and much more excellent performance than in the positive control was shown.)	high effect	high efficacy	B (Effective: the antagonistic activity was 65% or more and less than 75% and the more excellent performance than in the positive control was shown.)	B (Effective: the antagonistic activity was 65% or more and less than 75% and the more excellent performance than in the positive control was shown.)	B (Effective: the antagonistic activity was 65% or more and less than 75% and the more excellent performance than in the positive control was shown.)	A (Complete response: the antagonistic activity was 75% or more and much more excellent performance than in the positive control was shown.)	
SPANTIDE II: standard substance SPANTIDE II (peptidic analog of substance P), positive control (SPANTIDEII) [reference compound]								65%
maltotriose	A (Complete response: the antagonistic activity was 75% or more and much more excellent performance than in the positive control was shown.)	high effect		C (Slightly effective: the antagonistic activity was less than 65%, and a stimulating or agonistic activity of the sample was weak.)	C (Slightly effective: the antagonistic activity was less than 65%, and a stimulating or agonistic activity of the sample was weak.)	C (Slightly effective: the antagonistic activity was less than 65%, and a stimulating or agonistic activity of the sample was weak.)	B (Effective: the antagonistic activity was 65% or more and less than 75% and the more excellent performance than in the positive control was shown.)	
